Measured values from patent publication US20230340061A1, “PEPTIDES AND METHODS FOR THE TREATMENT OF MULTIPLE SCLEROSIS” (IMCYSE SA, priority 2020, published 2023).

Legend:
[1] = Oxidoreductase activity, fluorescent assay with FITC labelled peptides; type: biochemical; settings: reduction of self-quenched FITC labelled peptides, fluorescence
Text: The peptides of the invention comprise an MHC class II T-cell epitope or NKT cell epitope of MOG with a potential to trigger an immune reaction, and a modified oxidoreductase motif. The reducing activity of the motif sequence in the peptide can be assayed for its ability to reduce a sulfhydryl group such as in the insulin solubility assay wherein the solubility of insulin is altered upon reduction, or with a fluorescence-labelled substrate such as insulin. An example of such assay uses a fluorescent peptide and is described in Tomazzolli et al. (2006) Anal. Biochem. 350, 105-112. Two peptides with a FITC label become self-quenching when they covalently attached to each other via a disulfide bridge. Upon reduction by a peptide in accordance with the present invention, the reduced individual peptides become fluorescent again.
The oxidoreductase activity of the immunogenic peptides is determined using a fluorescent assay described in Tomazzolli et al. (2006) Anal. Biochem. 350, 105-112. Two peptides with a FITC label become self-quenching when they form a covalent disulfide bond. Upon reduction by a peptide in accordance with the present invention, the reduced individual FITC labelled peptides emit fluorescence again. The activity is expressed as the mean of duplicates. The results are expressed in Relative Fluorescent Units (RFU). […]

[2] = test system: CD4+ T cells of patients with multiple sclerosis; experiment: Generation of antigen specific CD4+ T cells, CD154 (CD40L) expression by flow cytometry; type: cell-based, human; settings: for specific induction of effector cells (CD3+CD4+CD154+): overnight co-culture
Method: PBMCs were isolated from blood samples of patients with multiple sclerosis treated by dimethyl fumarate (DMF) on Lymphoprep density gradients.
(§1) CD14+ monocytes were isolated from these PBMCs by performing positive immunomagnetic separation with CD14 microbeads (Miltenyi Biotec, 130-050-201) according to the supplier recommendations. CD14+ monocytes were cultured for six days and maturated to generate autologous dendritic cells (mDC). CD19+ B cells were isolated from the CD14- PBMCs fraction by performing positive immunomagnetic separation with CD19 microbeads (Miltenyi Biotec, 130-050-301) according to the supplier recommendations. CD19+ B cells were cultured and immortalized with EBV to generate autologous lymphoblastoid cell lines (LCL).
(§2) Naïve CD4+ T cells were also purified from the CD14- PBMCs fraction by performing negative immunomagnetic separation with naïve CD4+ T cell isolation kit (Miltenyi Biotec, 130-094-131) according to the supplier recommendations. Naïve CD4+ T cells were co-cultured with autologous mDC or LCL in the presence of P2 and P4 peptides. The CD4+ T cells were re-stimulated periodically, about every 10-12 days.
(§3) The ability of the peptides to generate antigen specific CD4+ T cells was evaluated by flow cytometry analysis of the TCR induced surface activation marker CD154 (CD40L) expression after overnight co-culture at resting state with autologous LCL without (no peptide) or with the peptides (P2 or P4). The surface expression of the lytic marker Fas ligand (CD178) was also evaluated by flow cytometry analysis after overnight co-culture at resting state with autologous LCL without (no peptide) or with the peptide (P4).

[3] = test system: CD4+ T cells of patients with multiple sclerosis; experiment: Surface expression of lytic marker Fas ligand (CD178) by flow cytometry; type: cell-based, human; settings: CD4+ cell lines of patients MS017 (S9) and MS020 (S10)
Method: as §2, §3

[4] = test system: CD4+ T cells of patients with multiple sclerosis; experiment: Cytokine secretion in CD4+ T cell culture supernatants (LEGENDplex Human Th Panel); type: cell-based
Text: as §2
The ability of the peptides to induce cytokines secretion in CD4+ T cells culture supernatants was evaluated by flow cytometry analysis after overnight co-culture at resting state with autologous mDC without (no peptide) or with the peptides (P2 or P4). Supernatants were analyzed with the LEGENDplex Human Th Panel (13-plex) (BioLegend, 740721) according to the supplier recommendations.

[5] = test system: autologous LCL; experiment: Cytolytic activity: apoptosis of autologous LCL (Annexin V); type: cell-based, human; settings: peptide-loaded labelled autologous LCL co-cultured with P4-specific CD4+ T cell lines from patients MS017 (S7), MS026 (S12), MS028 (S11) and MS029 (S9)
Method: as §1
The cytolytic activity of the antigen specific CD4+ T cells was evaluated by quantifying the apoptosis induced on LCL used as antigen presenting cells. Fluorescently labelled autologous LCL, loaded or not with the peptide (P4), were overnight co-cultured at resting state with specific CD4+ T cells, and LCL apoptosis was quantified by flow cytometry through Annexin V staining. Considering the apoptosis percentage of unloaded LCL, used as control, the percentage of specific apoptosis was calculated as follows

[6] = test system: Experimental Auto-Immune Encephalomyelitis (EAE); experiment: Therapeutic administration in MOG35-55-induced EAE; type: in vivo; settings: 30 μg s.c. with alum, days 4, 9, 14, 19, vs Saline group
Method: The study used a total of 48 female C57BL/6 mice (Taconic Biosciences, 9 weeks old on Day 0). Mice were acclimated for 7 days prior to the first injection. Mice were assigned to groups in a balanced manner to achieve similar average weight across the groups at the start of the study.
Dosing of all mice was performed once on each of the days indicated in Table 2, s.c., at a volume of 0.05 mL/site, each mouse receiving injection at two sites, for a total of 0.1 mL/mouse/dosing day. IMCY-0189 or P4 peptide total dose was 30 μg per administration.
Lyophilized immunogenic peptide IMCY-0189 with the sequence […] (SEQ ID NO: 260), comprising an oxidoreductase motif HCPYC (SEQ ID NO: 24), a linker GW, a murine Myelin Oligodendrocyte Glycoprotein (MOG35-55) MHCII T cell epitope […] (SEQ ID NO: 261) and a flanking sequence HLYR (SEQ ID NO: 262) (Smart Bioscience) was solubilized immediately before use. Lyophilized IMCY-0189 was thawed at room temperature for 10 minutes, resuspended in Na Acetate buffer 50 mM NaCl 0.9% pH 5.4 and incubated at room temperature for 10 minutes. Reconstituted peptide was then mixed with Imject™ Alum Adjuvant before injection.
Lyophilized immunogenic peptide P4 with the sequence […] (SEQ ID NO: 27), comprising an oxidoreductase motif KHCPYC (SEQ ID NO: 50), a linker VRY, a human Myelin Oligodendrocyte Glycoprotein (MOG201-212) MHCII T cell epitope […] (SEQ ID NO: 2) and a flanking sequence TLFKK (SEQ ID NO: 263) (Smart Bioscience) was solubilized immediately before use. Lyophilized P4 was thawed at room temperature for 10 minutes, resuspended in Na Acetate buffer 50 mM NaCl 0.9% pH 5.4 and incubated at room temperature for 10 minutes. Reconstituted peptide was then mixed with Imject™ Alum Adjuvant before injection.
EAE was induced in all mice as follows: • Day 0, Hour 0—Immunization with a peptide corresponding to the amino acids 35-55 of MOG (MOG35-55)/CFA • Day 0, Hour 2—Injection of pertussis toxin • Day 1, Hour 0—2nd injection of pertussis toxin (24 hours after initial immunization).
Mice were injected subcutaneously at two sites in the back with the emulsion component (containing MOG35-55) of Hooke Kit™ MOG35-55/CFA Emulsion PTX, catalog number EK-2110 (lot #131, Hooke Laboratories, Lawrence MA). One site of injection was in the area of upper back, approximately 1 cm caudal of the neck line. The second site was in the area of lower back, approximately 2 cm cranial of the base of the tail. The injection volume was 0.1 mL at each site. Each mouse received 200 μg of MOG35-55.
Within 2 hours of the injection of emulsion, and then again 24 hours after the injection of emulsion, the pertussis toxin component of the kit was administered intraperitoneally. The pertussis toxin (lot #1008, Hooke Laboratories) was administered at 90 ng/dose for both injections and the volume of each injection was 0.1 mL.
Animals were scored daily starting from Day 7 to the end of the study. Scoring was performed blind, by a person unaware of both treatment and of previous scores for each mouse. In-between scores were assigned when the clinical signs fell between two above defined scores.
On Day 28, blood was collected from all mice into gel clot activator tubes and allowed to clot at room temperature for ˜30 minutes. Blood is then centrifuged at ˜10000 g for 5 minutes. Serum was transferred into Eppendorf tubes and stored at −80° C. until shipment to Quanterix™. Serum Neurofilament light (NF-L) protein levels were quantified using Simoa® NF-light Advantage kit, a digital immunoassay for the quantitative determination of NF-L in serum, plasma and CSF. The used antibodies (Uman Diagnostics, Umea Sweden) also cross react with murine, bovine and macaque NF-L epitopes and as such, this assay can be used for research with these species. All samples were tested in duplicate at a dilution factor of 40×. […]

[7] = molecular target: T1, soluble HLA-DRB1*04:01 human MHC II protein (human); experiment: soluble-phase competition vs biotin-tagged control peptide, Eu3+-streptavidin fluorescence (FIG. 3)
T1 construct: Soluble protein purchased from the Benaroya Research Institute; also called HLA-DR4; DR4
Method: (§4) To test the binding of the immunogenic peptides to MHCII molecules, a soluble phase competition assay is performed. […] As binding approaches its equilibrium (18h), biotin-labelled peptide/MHC II complexes are captured, separated from unbound reagents, and quantitatively detected by time-resolved fluorescence (Eu³⁺ streptavidin, Perkin Elmer, Brussels, Belgium). […] Data are processed and plotted to ascertain dose-dependent binding properties of test peptides. All the tests are performed in triplicates.

[8] = molecular target: T2, soluble HLA-DRB1*03:01 human MHC II protein (human); experiment: soluble-phase competition vs biotin-labelled control peptide, Eu3+-streptavidin time-resolved fluorescence
T2 construct: Soluble protein purchased from the Benaroya Research Institute; also called HLA-DR3; DR3

[9] = molecular target: T2, soluble HLA-DRB1*03:01 human MHC II …; experiment: soluble-phase competition vs biotin-tagged control peptide, Eu3+-streptavidin fluorescence (FIG. 2)
Method: as §4

[10] = P4-specific CD4+ cell lines of patients MS024 (S20), MS017 (S9), MS026 (S13), MS028 (S11) and MS029 (S9)
[11] = culture supernatant of MS017 (S12) and MS024 (S20) CD4+ cell lines, P4 vs S-WT epitope peptide

For HCHGCVRYFLRVPCWKI [P6], which oxidoreductase activity [1] is on record?
Its oxidoreductase activity is “displayed oxidoreductase activity”.

For HCPYCGG-FLRVPCWKI [P7], which oxidoreductase activity [1] is on record?
The oxidoreductase activity was “displayed oxidoreductase activity”.

For KHCPYCVRYFLRVPSWKITLFKK [P4], which “specific induction of effector cells (CD3+CD4+CD154+)” value (“specific induction of effector cells” below) ([2]; P4-specific CD4+ cell lines of patients MS017 (S14) and MS026 (S13)) is on record?
Its value is “specific induction”.

What about the “specific induction of effector cells” value [2, 10] of the same molecule?
The value was “specific induction”.

What about the “generation of peptide-specific CD4+ T cell lines from MS patients” value ([2]; naive CD4+ T cells co-cultured with autologous mDC or LCL in presence of peptide) of the same molecule?
Its value is “able to generate P4-specific CD4+ T cell lines from eight different MS patients”.

What about the “frequency of effector cells (CD3+CD4+CD154+)” value ([2]; patients' CD4+ cell lines, overnight co-culture with autologous LCL with peptide vs no peptide) of the same molecule?
The value was “high frequency”.

And the “effector cells expressing the lytic marker Fas ligand (CD3+CD4+CD154+FasL+)” value [3]?
The value was “specific increase”.

And the “specific secretion of cytokine (IL-5)” value [4, 11]?
Its value is “specific secretion”.

And the “specific secretion of cytokine (IL-5)” value ([4]; culture supernatant of MS017 (S15) CD4+ cell line, P4 vs C-WT epitope peptides)?
Its value is “specific secretion”.

And the “specific secretion of cytokine (IL-5)” value ([4]; culture supernatant of MS017 (S15), MS024 (S20) and MS026 (S14) CD4+ cell lines)?
The value was “specific secretion”.

And the “percentage of specific LCL apoptosis” value [5]?
The value was “increase”.

And the “AUC (area under the curve) of EAE scores” value [6]?
The value was “statistically significant reduced”.

And the “MMS (mean maximal score)” value [6]?
Its value is “statistically significant reduced”.

And the disease onset [6]?
Its disease onset is “postponed”.

What about the “level of demyelination (anti-MBP stained spinal cord sections)” value [6] of the same molecule?
Its value is “reduced level”.

And the “level of inflammation (inflammatory foci, H&E stained spinal cord sections)” value [6]?
The value was “reduced level”.

And the “serum NF-L levels” value ([6]; Day 28)?
The value was “statistically significant reduced”.

What about the end score ([6]; EAE score 0-5) of the same molecule?
Its end score is “reduced”.

For “KLHRTFDPHFLRVPSWKITLFK [short S-WT, reference compound]”, which “specific induction of effector cells” value [2, 10] is on record?
Its value is “specific induction”.

And the “specific secretion of cytokine (IL-5)” value [4, 11]?
The value was “specific secretion”.

What about the “percentage of specific LCL apoptosis” value [5] of the same molecule?
The value was “increase”.

Does HCPYCVRYFLRVPSWKITLF (Synthetic) [P2 peptide HCPYCVRYFLRVPSWKITLF] bind [7]?
Result: binds

Does HCPYCVRYFLRVPSWKITLF (Synthetic) [P2 peptide HCPYCVRYFLRVPSWKITLF] bind [8]?
Result: binds

Does HCPYCVRYFLRVPCWKITLF (Synthetic) [P3 peptide HCPYCVRYFLRVPCWKITLF] bind [9]?
Result: binds

Does HCPYCVRYFLRVPCWKITLF (Synthetic) [P3 peptide HCPYCVRYFLRVPCWKITLF] bind [7]?
Result: binds
